This is an account of results in patent publication US8314078B2, “Silver nanoparticles as anti-microbial” (Vascular Vision Pharmaceutical Co., priority 2009, dated 2012).

Test [1] relates to S. aureus. Kind of test: Minimum Inhibition Concentration (MIC) assay, modified micro-broth dilution, S. aureus. Format: cell-based, Staphylococcus aureus. Conditions: for activity against Staphylococcus aureus: at concentrations up to 1.0 μM; for MIC against S. aureus: mean±SEM, n=3, 18 hours at 37° C.
The test system of test [2] is E. coli. The test is described as follows: Minimum Inhibition Concentration (MIC) assay, modified micro-broth dilution, E. coli. In kind it is cell-based, Escherichia coli. Conditions: for activity against Escherichia coli: at concentrations up to 1.0 μM; for MIC against E. coli: mean±SEM, n=3, 18 hours at 37° C. (Dilution methods test growth across graded concentrations, often in twofold steps.)

Some results are limits rather than exact numbers.

Take 2,6-diaminopyridinyl heparin [DAPHP]: in test [1], the “activity against Staphylococcus aureus” value is on record as “no activity” and the “MIC against S. aureus” value was >1.0 μM of sugar. Moreover, in test [2], the “activity against Escherichia coli” value is “no activity” and the “MIC against E. coli” value is given as >1.0 μM of sugar.
As to hyaluronan [HA], in test [1], the “activity against Staphylococcus aureus” value was “no activity” and the “MIC against S. aureus” value is listed as >1.0 μM of sugar. In test [2], the “activity against Escherichia coli” value is listed as “no activity” and the “MIC against E. coli” value is >1.0 μM of sugar.
